Calls of active or inactive are those of the source. No cut-off for these calls is given here.
Tests used:
MDA-MB-231 [1] = assay: Antitumor activity against human MDA-MB-231 cells xenografted in BALB/c nude mouse assessed as reduction in tumor volume at 10 to 25 mg/kg, ip measured at 2 days interval for 21 days; type: functional, organism-based; conditions: dose 10-25 mg/kg, time 2.0 day
Rattus norvegicus = organism: Rattus norvegicus; assay: Inhibition of purified rat liver TrxR measured after 75 mins in presence of NADPH by DTNB based assay
MDA-MB-231 [2] = assay: Antiproliferative activity against human MDA-MB-231 cells after 72 hrs by sulforhodamine B assay; type: functional, cell-based; conditions: MDA-MB-231, 72 h
MCF7 = assay: Antiproliferative activity against human MCF7 cells after 72 hrs by sulforhodamine B assay; type: functional, cell-based; conditions: MCF7, 72 h
A549 = assay: Antiproliferative activity against human A549 cells after 72 hrs by sulforhodamine B assay; type: functional, cell-based; conditions: A549, 72 h
KB = assay: Antiproliferative activity against human KB cells after 72 hrs by sulforhodamine B assay; type: functional, cell-based
[3] = Antiproliferative activity against human KB-VIN cells after 72 hrs by sulforhodamine B assay; type: functional, cell-based; conditions: KBVIN
[4] = Inhibition of TrxR in human MDA-MB-231 cells measured after 72 hrs by colorimetric method; type: cell-based
MDA-MB-231 [5] = assay: Down regulation of TrxR1 expression in human MDA-MB-231 cells measured after 72 hrs by Western blot analysis; type: functional, cell-based
MDA-MB-231 [6] = assay: Induction of reactive oxygen species generation in human MDA-MB-231 cells measured after 24 hrs by DCFH-DA probe based flow cytometry; type: functional, cell-based
MDA-MB-231 [7] = assay: Induction of apoptosis in human MDA-MB-231 cells at 0.2 uM measured after 72 hrs by APC-Annexin V/7-AAD staining based flow cytometry relative to control; type: functional
MDA-MB-231 [8] = assay: Induction of apoptosis in human MDA-MB-231 cells at 0.6 uM measured after 72 hrs by APC-Annexin V/7-AAD staining based flow cytometry relative to control; type: functional
MDA-MB-231 [9] = assay: Induction of apoptosis in human MDA-MB-231 cells at 1.8 uM measured after 72 hrs by APC-Annexin V/7-AAD staining based flow cytometry relative to control; type: functional
MDA-MB-231 [10] = assay: Induction of apoptosis in human MDA-MB-231 cells assessed as reduction in Bcl-2 expression measured after 72 hrs by Western blot analysis; type: functional, cell-based
MDA-MB-231 [11] = assay: Induction of apoptosis in human MDA-MB-231 cells assessed as reduction in Bcl-XL expression measured after 72 hrs by Western blot analysis; type: functional, cell-based
MDA-MB-231 [12] = assay: Induction of apoptosis in human MDA-MB-231 cells assessed as activation of caspase-3 cleavage at 0.2 to 1.8 uM measured after 72 hrs by Western blot analysis; type: functional, cell-based; conditions: dose 0.2-1.8 µM
MDA-MB-231 [13] = assay: Induction of autophagy in human MDA-MB-231 cells transfected with mRFP-eGFP-LC3 assessed as accumulation of autophagosomes by measuring increase in […] fluorescence measured after 24 hrs by confocal laser scanning microscopy; type: functional, cell-based
MDA-MB-231 [14] = assay: Induction of autophagy in human MDA-MB-231 cells transfected with mRFP-eGFP-LC3 assessed as accumulation of autolysosome by measuring increase in red fluorescence measured after 24 hrs by confocal laser scanning microscopy; type: functional, cell-based
MDA-MB-231 [15] = assay: Induction of autophagy in human MDA-MB-231 cells transfected with mRFP-eGFP-LC3 assessed as decrease in p62 expression at 0.2 to 1.8 uM measured after 72 hrs by Western blot analysis; type: functional, cell-based; conditions: dose 0.2-1.8 µM
MDA-MB-231 [16] = assay: Induction of autophagy in human MDA-MB-231 cells transfected with mRFP-eGFP-LC3 assessed as decrease in LC3-I expression at 0.2 to 1.8 uM measured after 72 hrs by Western blot analysis; type: functional, cell-based; conditions: dose 0.2-1.8 µM
MDA-MB-231 [17] = assay: Induction of autophagy in human MDA-MB-231 cells transfected with mRFP-eGFP-LC3 assessed as increase in LC3-II expression at 0.2 to 1.8 uM measured after 72 hrs by Western blot analysis; type: functional, cell-based; conditions: dose 0.2-1.8 µM
[18] = Acute toxicity in ICR mouse assessed as survival at 488.3 mg/kg, ip administered as single dose measured for 14 days; type: organism-based; conditions: in vivo, time 14 day, read-out: Activity
[19] = Acute toxicity in ICR mouse assessed as survival at 390.6 mg/kg, ip administered as single dose measured for 14 days; type: organism-based; conditions: in vivo, time 14 day, read-out: Activity
[20] = Acute toxicity in ICR mouse assessed as survival at 312.5 mg/kg, ip administered as single dose measured for 14 days; type: organism-based; conditions: in vivo, time 14 day, read-out: Activity
[21] = Acute toxicity in ICR mouse assessed as survival at 250 mg/kg, ip administered as single dose measured for 14 days; type: organism-based; conditions: in vivo, time 14 day, read-out: Activity
[22] = Acute toxicity in ICR mouse assessed as survival at 200 mg/kg, ip administered as single dose measured for 14 days; type: organism-based; conditions: in vivo, time 14 day, read-out: Activity
[23] = Acute toxicity in ICR mouse assessed as change in body weight at 200 mg/kg, ip administered as single dose measured for 14 days; type: organism-based; conditions: in vivo, 336 h, time 14 day
[24] = Acute toxicity in ICR mouse assessed as abnormality in drinking at 200 mg/kg, ip administered as single dose measured for 14 days; type: organism-based; conditions: in vivo, 336 h, time 14 day
[25] = Acute toxicity in ICR mouse assessed as abnormality in eating at 200 mg/kg, ip administered as single dose measured for 14 days; type: organism-based; conditions: in vivo, 336 h, time 14 day
[26] = Acute toxicity in ICR mouse assessed as death at 200 mg/kg, ip administered as single dose measured for 14 days; type: organism-based; conditions: in vivo, 336 h, time 14 day
[27] = Acute toxicity in ip dosed ICR mouse administered as single dose measured for 14 days; type: organism-based; conditions: in vivo, time 14 day
MDA-MB-231 [28] = assay: Antitumor activity against human MDA-MB-231 cells xenografted in BALB/c nude mouse assessed as reduction in tumor weight at 25 mg/kg, ip measured at 2 days interval for 21 days relative to control; type: functional; set-up: scale not given: the % may be the effect or the level left; conditions: time 2 day
MDA-MB-231 [29] = assay: Down regulation of TrxR1 expression in human MDA-MB-231 cells at 1.8 uM measured after 72 hrs by Western blot analysis; type: functional, cell-based
MDA-MB-231 [30] = assay: Induction of apoptosis in human MDA-MB-231 cells assessed as activation of caspase-3 cleavage at 1.8 uM measured after 72 hrs by Western blot analysis; type: functional, cell-based
MDA-MB-231 [31] = assay: Induction of autophagy in human MDA-MB-231 cells transfected with mRFP-eGFP-LC3 assessed as accumulation of autophagosomes by measuring increase in […] fluorescence at 1.8 uM measured after 24 hrs by confocal laser scanning microscopy; type: functional, cell-based
MDA-MB-231 [32] = assay: Induction of autophagy in human MDA-MB-231 cells transfected with mRFP-eGFP-LC3 assessed as accumulation of autolysosome by measuring increase in red fluorescence at 1.8 uM measured after 24 hrs by confocal laser scanning microscopy; type: functional, cell-based
MDA-MB-231 [33] = assay: Induction of autophagy in human MDA-MB-231 cells transfected with mRFP-eGFP-LC3 assessed as increase in LC3-II expression at 1.8 uM measured after 72 hrs by Western blot analysis; type: functional, cell-based
MDA-MB-231 [34] = assay: Antitumor activity against human MDA-MB-231 cells xenografted in BALB/c nude mouse assessed as reduction in tumor weight at 10 mg/kg, ip measured at 2 days interval for 21 days relative to control; type: functional; set-up: scale not given: the % may be the effect or the level left; conditions: time 2 day

O=C1C=CCC/C1=C\c1ccc(OC(F)(F)F)cc1
Activity (MDA-MB-231 [1]): Active
inhibition (Rattus norvegicus): Active
IC50 (MDA-MB-231 [2]): 590 nM
IC50 (MCF7): 1.04 µM
IC50 (A549): 0.44 µM
IC50 (KB): 530 nM
IC50 [3]: 0.84 µM
IC50 [4]: 120 nM
Activity (MDA-MB-231 [5]): Dose-dependent effect
Activity (MDA-MB-231 [6]): Active
Activity (MDA-MB-231 [7]): 20.7%
Activity (MDA-MB-231 [8]): 45.6%
Activity (MDA-MB-231 [9]): 56.8%
Activity (MDA-MB-231 [10]): Dose-dependent effect
Activity (MDA-MB-231 [11]): Dose-dependent effect
Activity (MDA-MB-231 [12]): Active
Activity (MDA-MB-231 [13]): Dose-dependent effect
Activity (MDA-MB-231 [14]): Dose-dependent effect
Activity (MDA-MB-231 [15]): Active
Activity (MDA-MB-231 [16]): Active
Activity (MDA-MB-231 [17]): Active
survival at 336 h [18]: 10%
survival at 336 h [19]: 30%
survival at 336 h [20]: 70%
survival at 336 h [21]: 90%
survival at 336 h [22]: 100%
Activity [23]: Non-Toxic
Activity [24]: Non-Toxic
Activity [25]: Non-Toxic
Activity [26]: Non-Toxic
LD50 at 336 h [27]: 366 mg/kg
Activity (MDA-MB-231 [28]): 63.3%

COc1ccc(/C=C2\CCC=CC2=O)cc1OC
IC50 (MDA-MB-231 [2]): 640 nM
IC50 (MCF7): 5.23 µM
IC50 (A549): 4.68 µM
IC50 (KB): 900 nM
IC50 [3]: 5.38 µM

COc1cc(/C=C2\CCC=CC2=O)cc(OC)c1O
IC50 (MDA-MB-231 [2]): 1610 nM
IC50 (MCF7): 2.18 µM
IC50 (A549): 1.54 µM
IC50 (KB): 1520 nM
IC50 [3]: 3.1 µM

COc1cc(/C=C2\CN(S(=O)(=O)c3ccccc3)C=CC2=O)cc(OC)c1OC
IC50 (MDA-MB-231 [2]): 23300 nM
IC50 (MCF7): > 25 µM
IC50 (A549): 22.4 µM

COc1cc(/C=C2\CN(S(=O)(=O)c3ccc(C)cc3)C=CC2=O)cc(OC)c1OC
IC50 (MDA-MB-231 [2]): 22200 nM
IC50 (MCF7): 19.2 µM
IC50 (A549): 20.2 µM

COc1cc(/C=C/C(=O)N2CCC=CC2=O)cc(OC)c1OC [PIPLARTINE]
inhibition (Rattus norvegicus): Active
IC50 (MDA-MB-231 [2]): 3720 nM
IC50 (MCF7): 4.4 µM
IC50 (A549): 3.2 µM
IC50 (KB): 1670 nM
IC50 [3]: 7.85 µM
IC50 [4]: 1520 nM
Activity (MDA-MB-231 [29]): Active
Activity (MDA-MB-231 [6]): Active
Activity (MDA-MB-231 [9]): Active
Activity (MDA-MB-231 [30]): Active
Activity (MDA-MB-231 [31]): Active
Activity (MDA-MB-231 [32]): Active
Activity (MDA-MB-231 [33]): Active
Activity (MDA-MB-231 [34]): 44.9%

COc1cc(/C=C2\CCC=CC2=O)cc(OC)c1OC
IC50 (MDA-MB-231 [2]): 670 nM
IC50 (MCF7): 5.26 µM
IC50 (A549): 4.25 µM
IC50 (KB): 880 nM
IC50 [3]: 4.75 µM
IC50 [4]: 110 nM
Activity (MDA-MB-231 [6]): Active

COc1cc(/C=C2\CNC=CC2=O)cc(OC)c1OC
IC50 (MDA-MB-231 [2]): > 25000 nM
IC50 (MCF7): > 25 µM
IC50 (A549): > 25 µM

CCOc1ccc(/C=C2\CCC=CC2=O)cc1OC
IC50 (MDA-MB-231 [2]): 600 nM
IC50 (MCF7): 3.95 µM
IC50 (A549): 3.64 µM
IC50 (KB): 1280 nM
IC50 [3]: 4.8 µM

O=C1C=CCC/C1=C\c1ccccc1OC(F)(F)F
IC50 (MDA-MB-231 [2]): 1010 nM

O=C1C=CCC/C1=C\c1cccnc1
IC50 (MDA-MB-231 [2]): 1050 nM
IC50 (MCF7): 2.03 µM
IC50 (A549): 1.51 µM
IC50 (KB): 1520 nM
IC50 [3]: 2.81 µM

O=C1C=CCC/C1=C\c1cccc(OC(F)(F)F)c1
IC50 (MDA-MB-231 [2]): 820 nM

COc1cc(/C=C2\CCC=C(I)C2=O)cc(OC)c1OC
IC50 (MDA-MB-231 [2]): 670 nM
IC50 (MCF7): 5.33 µM
IC50 (A549): 4.86 µM
IC50 (KB): 3670 nM
IC50 [3]: 5.31 µM

COc1cc(OC)c(/C=C2\CCC=CC2=O)c(OC)c1
IC50 (MDA-MB-231 [2]): 5070 nM
IC50 (MCF7): 9.08 µM
IC50 (A549): 4.7 µM
IC50 (KB): 5820 nM
IC50 [3]: 6.45 µM
